Measurements as given in patent US20060051295A1, “Estrogen receptor interaction with a transcription factor” (priority 2002, published 2006).

System: ERα and c-Rel
Experiment: NF-κB-responsive reporters in COS cells transfected with ERα and c-Rel
Format: cell-based, human
Settings: COS cells (B), ERα + cRel transfected
Source text: This example describes an assay, based on the E-selectin or VCAM promoter in combination with ERα in the T24/ECV cell line. Note that for the ER/NF-κB transrepression assay the ECV304 cell line was used, which was believed to be the only endothelial cell line available that was suitable for producing stable ERα expressing clones. At a later stage ATCC reported that the ECV304 cells were no endothelial cells but, instead, were T24 bladder carcinoma cells. In order to enhance the cytokine induction and amount of repression by estrogens, multiple copies of NF-κB responsive regions of the E-Selectin and VCAM promoters were used to construct new reporters named ELAM1a, ELAM2, ELAM-HMG, VCAM1-2, VCAM2, and VCAM3 (for reporter details see appendix 1).
ECV304-ERα cells stably express ERα and endogenous c-Rel, whereas COS cells were transiently transfected with ERα, and, where indicated, c-Rel. Both cell types were co-transfected with the indicated E-selectin (ELAM) or VCAM promoter derived reporters.
Human osteosarcoma U-2 OS (HTB-96), monkey kidney COS-1 (CRL-1650) and human ECV304 (CRL-1998) cells have been obtained from ATCC (American Type Culture collection). ECV304 cells were sold by ATCC as human endothelial cells, however at a later stage ATCC informed us that this cell line was in fact the human bladder epithelial carcinoma cell line T24. Therefore, these cells are called T24/ECV in this report. ECV304/T24(-ERα), U-2 OS and COS-7 cells were grown in a 1:1 mixture of phenol red free Dulbecco's modified medium (DMEM) and Ham's F12 medium (=M505), supplemented with 10% fetal calf serum (FCS). Experiments were performed in M505+10% FCTS (fetal calf serum treated with dextran-coated charcoal to deplete serum from steroid activity).
The six NF-κB responsive reporters pHGL3-ELAM 1a, pHGL3-ELAM 2, pHGL3-ELAM HMG, pHGL3-VCAM 1-2, pHGL3-VCAM 2 and pHGL3-VCAM 3 (plasmid nr. 1921-1926 respectively) were constructed by ligating annealed primers in the Kpn I and Sac I sites of pHGL3-TATA. The primers were based on the NF-κB-RE sequences in the ELAM and the VCAM promoter (see Appendix 1). Several copies of the NF-κB-RE's were cloned in order the gain a higher absolute luciferase signal. The ELAM HMG construct contains a double repeat, while the other constructs contain three NF-κB -RE's. For primer and reporter sequences, see appendix 1.
For transient transfections, cells were seeded in 6-well plates (2.10^5 cells/well). After two or three days the cells were transfected with reporter, expression vectors and β-galactosidase control vector. Two different experimental settings were used. For testing transrepression of IL-1β induced promoter activity, cells were transfected with 1 μg reporter construct, 1 μg expression vector (containing either ERα, ERβ or GR), and 0.25 μg of β-galactosidase control plasmid. For testing transrepression in combination with c-Rel or ReLA overexpression, cells were transfected with 1 μg reporter construct, 1 μg expression vector (containing either ERα, ERβ or GR) and 0.1 or 1.0 μg expression vector containing c-Rel or RelA and 0.25 μg of β-galactosidase control vector. Equivalent amounts of DNA were obtained by adding the appropriate expression vector that lacks an insert. Transient transfection was performed using lipofectin reagent (Life Technologies). […] The transfected cells were incubated overnight with test compounds prior to cell lysis. Measurement of luciferase and P-galactosidase activity were performed using respectively the luciferase assay system (Promega) and Galacto-light plus (Tropix) according to the manufacturers' protocols and measured on the Victor 1420 multilabel counter, Wallac.

C[C@]12CC[C@@H]3c4ccc(O)cc4CC[C@H]3[C@@H]1CC[C@@H]2O [Org E2, 17β-estradiol]
luciferase activity, ELAM1a reporter: 7390 cps
luciferase activity, ELAM2 reporter: 6223 cps
luciferase activity, ELAM-HMG reporter: 61571 cps
luciferase activity, ELAM− reporter: 90035 cps
luciferase activity, VCAM1-2 reporter: 9107 cps
luciferase activity, VCAM2 reporter: 4783 cps
luciferase activity, VCAM3 reporter: 10781 cps
luciferase activity, VCAM reporter: 51283 cps
